Measurements taken from patent publication US20020137929A1, “1 - (3-heterocyclylphenyl) isothiourea, -isourea, -guanidine and -amidine herbicidal agents” (Intellectual Property Department, BASF Aktiengesellschaft, priority 1998, published 2002).

Tests used:
ABUTH (Velvetleaf) = assay: Preemergence herbicidal evaluation; type: in vivo, Abutilon theophrasti; settings: rated 4-5 weeks after treatment
Procedure, shortened: (§1)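 Scores use a 0–9 visual scale covering stand, vigor, malformation, size and chlorosis relative to controls, rated four to five weeks after treatment. Before emergence, soil-planted seeds were sprayed with compound in aqueous acetone at roughly 0.0156–0.500 kg/ha and held in the greenhouse.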

[1] = test system: TRZAWR (Wheat, Winter, cv Riband); assay: Preemergence herbicidal evaluation; type: in vivo, Triticum aestivum; settings: rated 4-5 weeks after treatment
Procedure, shortened: as §1

[2] = test system: ECHORC (Watergrass (Calif.)); assay: Preemergence weed control under flooded paddy conditions; type: in vivo, Echinochloa oryzoides; settings: rated 3-4 weeks after treatment
Procedure, shortened: (§2)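 Herbicidal effect is scored visually on a 0-9 scale against an untreated control, three to four weeks after compounds are pipetted into the flood water (1.5 to 3 cm deep) over seeds planted in silt loam at 0.5 cm depth. Rates: about 0.0313 to 0.500 kg/ha.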

CYPIR (Rice Flatsedge) = assay: as above; type: in vivo, Cyperus iria; settings: rated 3-4 weeks after treatment
Procedure, shortened: as §2

[3] = test system: SAGPY (Arrowhead (Pygmaea)); assay: as above; type: in vivo, Sagittaria pygmaea; settings: rated 3-4 weeks after treatment
Procedure, shortened: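 Seeds or propagules sown in silt loam kept flooded 1.5-3 cm; compounds in 50/50 acetone/water pipetted into flood water at about 0.0313 to 0.500 kg/ha. Greenhouse; visual 0-9 rating versus untreated control 3-4 weeks after treatment.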

ORYSAT (Rice, Tebonnet) [4] = assay: Rice tolerance to post-transplant applications, flooded paddy conditions (Table III); type: in vivo, Oryza sativa, (L.) Tebonnet
Procedure, shortened: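 Injury scored 0-9 by eye against untreated control, judging stand, vigor, malformation, size and chlorosis, three to four weeks after treatment. Compound in 50/50 aqueous/acetone, about 0.0313 to 0.500 kg/ha, was applied to paddy water (1.5 to 3 cm depth) three days after transplanting paired ten-day-old Tebonnet rice seedlings.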

MOOVA (Monochoria) = assay: Postemergence weed control under flooded paddy conditions; type: in vivo, Monochoria vaginalis; settings: postemergence weeds, 3-4 weeks after treatment
Procedure, shortened: (§3)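 Injury ratings (0–9 scale covering stand, vigor, malformation, size, chlorosis and overall appearance versus control) were made three to four weeks after treatment. Test material, about 0.0313 to 0.500 kg/ha a.i. in 50/50 v/v aqueous/acetone, was added to flood water 1.5 to 3 cm deep over 3 to 5 cm weeds and 1.5 to 2.5 leaf rice.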

ORYSAT (Rice, Tebonnet) [5] = assay: Rice tolerance to post-transplant applications, flooded paddy conditions (Table IV); type: in vivo, Oryza sativa, (L.) Tebonnet
Procedure, shortened: as §3

Structure (SMILES)	ABUTH preemergence herbicidal rating (ABUTH (Velvetleaf); rate 0.0313 kg/ha)	ABUTH preemergence herbicidal rating (ABUTH (Velvetleaf); rate 0.0625 kg/ha)	ABUTH preemergence herbicidal rating (ABUTH (Velvetleaf); rate 0.1250 kg/ha)	ABUTH preemergence herbicidal rating (ABUTH (Velvetleaf); rate 0.2500 kg/ha)	ABUTH preemergence herbicidal rating (ABUTH (Velvetleaf); rate 0.5000 kg/ha)	TRZAWR preemergence herbicidal rating ([1]; rate 0.0313 kg/ha)	TRZAWR preemergence herbicidal rating ([1]; rate 0.0625 kg/ha)	TRZAWR preemergence herbicidal rating ([1]; rate 0.1250 kg/ha)	TRZAWR preemergence herbicidal rating ([1]; rate 0.2500 kg/ha)	Herbicidal rating ECHORC ([2]; 0.0313 kg/ha)	Herbicidal rating ECHORC ([2]; 0.0625 kg/ha)	Herbicidal rating ECHORC ([2]; 0.1250 kg/ha)	Herbicidal rating ECHORC ([2]; 0.2500 kg/ha)	Herbicidal rating CYPIR (CYPIR (Rice Flatsedge); 0.0313 kg/ha)	Herbicidal rating CYPIR (CYPIR (Rice Flatsedge); 0.0625 kg/ha)	Herbicidal rating CYPIR (CYPIR (Rice Flatsedge); 0.1250 kg/ha)	Herbicidal rating CYPIR (CYPIR (Rice Flatsedge); 0.2500 kg/ha)	Herbicidal rating SAGPY ([3]; 0.0313 kg/ha)	Herbicidal rating SAGPY ([3]; 0.0625 kg/ha)	Herbicidal rating SAGPY ([3]; 0.1250 kg/ha)	further results
CCOC(=O)/C=C1/S/C(=N/c2cc(-n3c(=O)cc(C(F)(F)F)n(C)c3=O)c(F)cc2Cl)N(CC(=O)OCC)C1=O [Compound 14]	1.0	2.0	9.0	9.0	9.0	0.0	0.0	0.0	0.0	1.5	4.5	7.5	9.0	2.0	2.5	4.5	0.0	0.0	0.0	0.0	Herbicidal rating SAGPY ([3]; 0.2500 kg/ha): 0.0; Herbicidal rating ORYSAT (rice tolerance) (ORYSAT (Rice, Tebonnet) [4]; 0.0313 kg/ha, post-transplant rice, flooded paddy, rated 3-4 weeks after treatment): 0.0; Herbicidal rating ORYSAT (rice tolerance) (ORYSAT (Rice, Tebonnet) [4]; 0.0625 kg/ha, post-transplant rice, flooded paddy, rated 3-4 weeks after treatment): 0.5; Herbicidal rating ORYSAT (rice tolerance) (ORYSAT (Rice, Tebonnet) [4]; 0.1250 kg/ha, post-transplant rice, flooded paddy, rated 3-4 weeks after treatment): 1.0; Herbicidal rating ORYSAT (rice tolerance) (ORYSAT (Rice, Tebonnet) [4]; 0.2500 kg/ha, post-transplant rice, flooded paddy, rated 3-4 weeks after treatment): 0.0; Herbicidal rating MOOVA (MOOVA (Monochoria); rate 0.0313 kg/ha): 6.8; Herbicidal rating MOOVA (MOOVA (Monochoria); rate 0.0625 kg/ha): 6.8; Herbicidal rating MOOVA (MOOVA (Monochoria); rate 0.1250 kg/ha): 6.8; Herbicidal rating MOOVA (MOOVA (Monochoria); rate 0.2500 kg/ha): 4.5; Herbicidal rating ORYSAT (rice tolerance) (ORYSAT (Rice, Tebonnet) [5]; rate 0.0313 kg/ha, flooded paddy, post-transplant rice, 3-4 weeks after treatment): 0.0; Herbicidal rating ORYSAT (rice tolerance) (ORYSAT (Rice, Tebonnet) [5]; rate 0.0625 kg/ha, flooded paddy, post-transplant rice, 3-4 weeks after treatment): 0.3; Herbicidal rating ORYSAT (rice tolerance) (ORYSAT (Rice, Tebonnet) [5]; rate 0.1250 kg/ha, flooded paddy, post-transplant rice, 3-4 weeks after treatment): 0.5; Herbicidal rating ORYSAT (rice tolerance) (ORYSAT (Rice, Tebonnet) [5]; rate 0.2500 kg/ha, flooded paddy, post-transplant rice, 3-4 weeks after treatment): 0.0
CCOC(=O)CN1C(=O)C(CC(=O)O)S/C1=N/c1cc(-n2c(=O)cc(C(F)(F)F)n(C)c2=O)c(F)cc1Cl (stereo not drawn) [Compound 16]	8.1	8.8	8.9	9.0	9.0	0.5	0.5	0.8	2.6	0.0	0.0	0.0	0.0	0.0	0.0	4.0	9.0	0.0	0.0	0.0	ABUTH preemergence herbicidal rating (ABUTH (Velvetleaf); rate 0.0156 kg/ha): 5.6; TRZAWR preemergence herbicidal rating ([1]; rate 0.0156 kg/ha): 0.1; TRZAWR preemergence herbicidal rating ([1]; rate 0.5000 kg/ha): 5.8; Herbicidal rating SAGPY ([3]; 0.2500 kg/ha): 0.0; Herbicidal rating ORYSAT (rice tolerance) (ORYSAT (Rice, Tebonnet) [4]; in vivo): 0.0; Herbicidal rating MOOVA (MOOVA (Monochoria); rate 0.0313 kg/ha): 9.0; Herbicidal rating MOOVA (MOOVA (Monochoria); rate 0.0625 kg/ha): 9.0; Herbicidal rating MOOVA (MOOVA (Monochoria); rate 0.1250 kg/ha): 9.0; Herbicidal rating MOOVA (MOOVA (Monochoria); rate 0.2500 kg/ha): 3.0; Herbicidal rating ORYSAT (rice tolerance) (ORYSAT (Rice, Tebonnet) [5]; in vivo): 0.0
CCOC(=O)CN1C(=O)C(=Cc2ccccc2)SC1=Nc1cc(-n2c(=O)cc(C(F)(F)F)n(C)c2=O)c(F)cc1Cl [Compound 19, Ethyl 5-benzylidene-2-{{2-chloro-5-[3,6-dihydro-3-methyl-2,6-dioxo-4-(trifluoromethyl)-1(2H)-pyrimidinyl]-4-fluorophenyl}imino}-4-oxo-3-thiazolidineacetate]			9.0	9.0				0.0	0.0												Herbicidal rating ECHORC ([2]; 0.1160 kg/ha): 7.0; Herbicidal rating ECHORC ([2]; 0.2310 kg/ha): 7.0; Herbicidal rating ECHORC ([2]; 0.4630 kg/ha): 9.0; Herbicidal rating CYPIR (CYPIR (Rice Flatsedge); 0.1160 kg/ha): 0.0; Herbicidal rating CYPIR (CYPIR (Rice Flatsedge); 0.2310 kg/ha): 0.0; Herbicidal rating CYPIR (CYPIR (Rice Flatsedge); 0.4630 kg/ha): 0.0; Herbicidal rating SAGPY ([3]; 0.1160 kg/ha): 0.0; Herbicidal rating SAGPY ([3]; 0.2310 kg/ha): 3.0; Herbicidal rating SAGPY ([3]; 0.4630 kg/ha): 3.0; Herbicidal rating ORYSAT (rice tolerance) (ORYSAT (Rice, Tebonnet) [4]; in vivo): 3.0; Herbicidal rating MOOVA (MOOVA (Monochoria); rate 0.1160 kg/ha): 9.0; Herbicidal rating MOOVA (MOOVA (Monochoria); rate 0.2310 kg/ha): 9.0; Herbicidal rating MOOVA (MOOVA (Monochoria); rate 0.4630 kg/ha): 9.0; Herbicidal rating ORYSAT (rice tolerance) (ORYSAT (Rice, Tebonnet) [5]; in vivo): 3.0
